Measured values from ChEMBL document CHEMBL1201862, “PubChem BioAssay data set” (2004).
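Exposure lasted 48 hours, with cells grown in 96-well plates and compounds tested at five concentrations. GI50: concentration for 50% inhibition of growth.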 Active and inactive are the calls of the source. Rule as the data show it: active = GI50 up to about 1.1 µM and inactive = higher.

What was measured:
Test in all cases: NCI tumour cell line growth inhibition, 48 h
[1] = tested on: SF-268
[2] = tested on: SNB-19
[3] = tested on: KM12
[4] = tested on: SK-MEL-2
[5] = tested on: HCC 2998
[6] = tested on: OVCAR-3
[7] = tested on: OVCAR-8
[8] = tested on: NCI-H23
[9] = tested on: EKVX
[10] = tested on: UO-31
[11] = tested on: HCT-116
[12] = tested on: CAKI-1
[13] = tested on: PC-3
[14] = tested on: SN12C
[15] = tested on: UACC-257
[16] = tested on: Malme-3M
[17] = tested on: SK-MEL-28
[18] = tested on: MCF7
[19] = tested on: HOP-62
[20] = tested on: SNB-75
[21] = tested on: SK-MEL-5
[22] = tested on: MDA-MB-435
[23] = tested on: SK-OV-3
[24] = tested on: MDA-MB-231
[25] = tested on: NCI/ADR-RES
[26] = tested on: HOP-92
[27] = tested on: RXF 393
[28] = tested on: SF-295
[29] = tested on: LOX IMVI
[30] = tested on: RPMI-8226
[31] = tested on: M14
[32] = tested on: BT-549
[33] = tested on: NCI-H226
[34] = tested on: UACC-62
[35] = tested on: MOLT-4
[36] = tested on: A498
[37] = tested on: TK-10
[38] = tested on: NCI-H522
[39] = tested on: K562
[40] = tested on: HT-29
[41] = tested on: SF-539
[42] = tested on: T47D
[43] = tested on: IGROV-1
[44] = tested on: COLO 205
[45] = tested on: ACHN
[46] = tested on: 786-0
[47] = tested on: Hs-578T
[48] = tested on: MDA-N
[49] = tested on: SW-620
[50] = tested on: OVCAR-4
[51] = tested on: HCT-15
[52] = tested on: A549
[53] = tested on: NCI-H460
[54] = tested on: U-251
[55] = tested on: DU-145
[56] = tested on: OVCAR-5
[57] = tested on: SR
[58] = tested on: HL-60
[59] = tested on: CCRF-CEM

CC(=N/NC(=S)N1CCCCC1)/C(=N\NC(=S)N1CCCCC1)c1ccccc1
GI50 [1]: 1.79 µM (inactive)
GI50 [2]: 1.87 µM (inactive)
GI50 [3]: 1.97 µM (inactive)
GI50 [4]: 2.11 µM (inactive)
GI50 [5]: 2.3 µM (inactive)
GI50 [6]: 1.65 µM (inactive)
GI50 [7]: 2.64 µM (inactive)
GI50 [8]: 2.2 µM (inactive)
GI50 [9]: 1.89 µM (inactive)
GI50 [10]: 1.76 µM (inactive)
GI50 [11]: 2.53 µM (inactive)
GI50 [12]: 2.04 µM (inactive)
GI50 [13]: 1.64 µM (inactive)
GI50 [14]: 1.82 µM (inactive)
GI50 [15]: 1.95 µM (inactive)
GI50 [16]: 2.13 µM (inactive)
GI50 [17]: 2.09 µM (inactive)
GI50 [18]: 2.75 µM (inactive)
GI50 [19]: 2.04 µM (inactive)
GI50 [20]: 1.91 µM (inactive)
GI50 [21]: 1.96 µM (inactive)
GI50 [22]: 2.08 µM (inactive)
GI50 [23]: 1.95 µM (inactive)
GI50 [24]: 2.7 µM (inactive)
GI50 [25]: 2.65 µM (inactive)
GI50 [26]: 1.9 µM (inactive)
GI50 [27]: 1.35 µM (inactive)
GI50 [28]: 1.87 µM (inactive)
GI50 [29]: 3.43 µM (inactive)
GI50 [30]: 3.36 µM (inactive)
GI50 [31]: 1.99 µM (inactive)
GI50 [32]: 1.91 µM (inactive)
GI50 [33]: 1.91 µM (inactive)
GI50 [34]: 1.77 µM (inactive)
GI50 [35]: 6.19 µM (inactive)
GI50 [36]: 1.3 µM (inactive)
GI50 [37]: 1.74 µM (inactive)
GI50 [38]: 2.23 µM (inactive)
GI50 [39]: 4.74 µM (inactive)
GI50 [40]: 2.1 µM (inactive)
GI50 [41]: 2.67 µM (inactive)
GI50 [42]: 2.12 µM (inactive)
GI50 [43]: 1.72 µM (inactive)
GI50 [44]: 2.22 µM (inactive)
GI50 [45]: 1.6 µM (inactive)
GI50 [46]: 1.99 µM (inactive)
GI50 [47]: 1.84 µM (inactive)
GI50 [48]: 2.61 µM (inactive)
GI50 [49]: 2.15 µM (inactive)
GI50 [50]: 1.85 µM (inactive)
GI50 [51]: 2.1 µM
GI50 [52]: 2.03 µM (inactive)
GI50 [53]: 1.91 µM (inactive)
GI50 [54]: 1.68 µM (inactive)
GI50 [55]: 0.512 µM (active)
GI50 [56]: 2 µM (inactive)

Cc1oc2c(Cl)cc(O)c(Cl)c2c2cccc1-2
GI50 [1]: 34.9 µM (inactive)
GI50 [2]: 42.8 µM (inactive)
GI50 [3]: 17.7 µM (inactive)
GI50 [4]: 33.3 µM (inactive)
GI50 [5]: > 100 µM (inactive)
GI50 [6]: 18.1 µM (inactive)
GI50 [7]: 23.6 µM (inactive)
GI50 [8]: 19.5 µM (inactive)
GI50 [9]: 18.7 µM (inactive)
GI50 [10]: 36.4 µM (inactive)
GI50 [11]: 16.6 µM (inactive)
GI50 [12]: 30.1 µM (inactive)
GI50 [13]: 31.3 µM (inactive)
GI50 [14]: 25.9 µM (inactive)
GI50 [15]: > 100 µM (inactive)
GI50 [16]: 25.7 µM (inactive)
GI50 [17]: 14.8 µM (inactive)
GI50 [18]: 9.73 µM (inactive)
GI50 [19]: 24.2 µM (inactive)
GI50 [20]: 2.83 µM (inactive)
GI50 [21]: 19.4 µM (inactive)
GI50 [22]: 20.1 µM (inactive)
GI50 [23]: > 100 µM (inactive)
GI50 [24]: 33.6 µM (inactive)
GI50 [25]: 28.8 µM (inactive)
GI50 [26]: 14.9 µM (inactive)
GI50 [28]: 31.6 µM (inactive)
GI50 [57]: 12.5 µM (inactive)
GI50 [29]: 16.9 µM (inactive)
GI50 [30]: 10.4 µM (inactive)
GI50 [31]: 28.6 µM (inactive)
GI50 [32]: 23.6 µM (inactive)
GI50 [33]: 14.2 µM (inactive)
GI50 [34]: 28.6 µM (inactive)
GI50 [36]: 42 µM (inactive)
GI50 [37]: > 100 µM (inactive)
GI50 [38]: 26.4 µM (inactive)
GI50 [39]: 12.6 µM (inactive)
GI50 [40]: 35.2 µM (inactive)
GI50 [58]: 25.8 µM (inactive)
GI50 [41]: 20.1 µM (inactive)
GI50 [42]: 1.96 µM (inactive)
GI50 [43]: 23.1 µM (inactive)
GI50 [44]: 30.4 µM (inactive)
GI50 [45]: 40.6 µM (inactive)
GI50 [46]: 21.9 µM (inactive)
GI50 [47]: 34.8 µM (inactive)
GI50 [48]: 18.5 µM (inactive)
GI50 [49]: 32.5 µM (inactive)
GI50 [50]: 12 µM (inactive)
GI50 [51]: 21.5 µM
GI50 [59]: 14.1 µM (inactive)
GI50 [52]: 28.2 µM (inactive)
GI50 [53]: > 100 µM (inactive)
GI50 [54]: 18.9 µM (inactive)
GI50 [55]: 8.85 µM (inactive)
GI50 [56]: 45.5 µM (inactive)
